Data from PMC5594551, “Heterogeneous drug penetrance of veliparib and carboplatin measured in triple negative breast tumors” (Breast Cancer Research : BCR, 2017).
Where “and” joins values, the source holds several entries; their conditions need not be identical. Identical values can stand only once. Like-named read-outs stand apart in the source and are kept apart here. Each block holds one molecule with its values, some of them ahead of it.

Legend:
[1] = Veliparib quantified by LC-MS in plasma, TNBC xenograft tumor, muscle and liver of mice; assay type: in vivo, beige SCID mice; settings: for Median conc. (RSE %) / concentration at 3 h: LC-MS; for concentration at 3 h: beige SCID (Fox Chase), mouse, read-out: Median conc. (RSE %)
Description: (§1) Forty-one beige DF mice with severe combined immunodeficiency (SCID) (Fox Chase, strain R035948:1) were implanted with 10^6 MDA-MB-231 (N = 10), HCC70 N = 21) or MDA-MB-436 (N = 10) TNBC cells obtained from the ATCC bilaterally in the mammary fat pads (Fig. 1). When the TNBC xenograft tissue size exceeded 200 mm^3, the mice were randomized across the treatment cohorts. Animals were randomized into veliparib low dose (20 mg/kg), veliparib high dose (60 mg/kg) or placebo + C, introduced via oral gavage three times daily for 3 days (all but the two DCE-MRI study mice). Carboplatin at 60 mg/kg was administered intravenously on day 1 and day 2. Blood samples (50 μL) were obtained at day 2 in ethylenediaminetetraacetic acid (EDTA) containing vials at 0.6, 3 and 5 h after veliparib and carboplatin dose in 15 mice (all xenograft models, Fig. 1). The procedures were approved by the Institutional Animal (IACUC AN092211-01D).
Thirty-nine mice were euthanized approximately 3 h after the last dose of veliparib and 24 h after the last dose of carboplatin; two mice used in the DCE-MRI pilot were euthanized 1.5 h after single-dose administration of veliparib and carboplatin (Fig. 1). Bilateral xenograft tumors and liver and muscle (quadriceps) tissues were harvested. Tissues were cut into three pieces and either embedded in optimum cutting temperature (OCT) formulation or were directly snap frozen in liquid-nitrogen-cooled isopentane and stored at − 80 °C until analysis. […] A separate fresh-frozen portion of each tissue per animal was ground for quantification of veliparib and carboplatin by LC-MS. Method development and details of the techniques are described in Additional file 1a-c. […]
c) Technical aspects of the LC-MS method development.
Plasma samples (50 μl ) were prepared using protein precipitation with acetonitrile. Small tumor samples (average 44 mg) were pulverized using Biopulverizer R (Biospec Bartlesville, OK, USA). Volume and weight of the pulverized tumor was determined. Veliparib was then extracted using cell lysis buffer (Cell Signaling Technology, Danvers, MA,USA), complemented with Halt Protease & Phosphatase (ThermoScientific, Atlanta, GA,USA). Protein precipitation of the tissue lysates was performed with acetonitrile. Oxaliplatin (Tzchem, Framingham, MA,USA) and iniparib (Sigma-Aldrich, Milwaukee, USA) were used as internal standards.
Veliparib/carboplatin quantification:
Carboplatin and veliparib were measured using LC-MS (Applied Biosystem Systems 3200 LC-MS/MS, Toronto, Canada), with electrospray ionization (ESI), using a Xterra® MS C18 3.5 µm column (Waters, Milford, MA, USA). The mobile phase contained 50:50 methanol and water with 0.1%, formic acid.
Concentration of veliparib in tissues were calculated in mg/g and transferred to mg/L by estimating the average density of the livers, muscles and tumors.
Figure S9: Example graph of mass spectrum of veliparib and carboplatin and the internal standards in plasma […]
Method development/validation
The limit of quantification was 15 ng/ml for veliparib and 156 ng/ml for carboplatin. The calibration curves […]
Figure S10) Repetition quantification from two tissue sections of the same animal to show consistence of results when repeating veliparib extraction (performed by LCMS).

[2] = set-up: method as in PMID 19526240; settings: ref [32]; cited from earlier work
[3] = test system: MDA-MB-436; settings: MDA-MB-436, BRCA1-mutated; ref [23], [25]; cited from earlier work
[4] = test system: MDA-MB-231; set-up: method as in PMID 21633166, PMID 21707865; settings: ref [23], [25]; cited from earlier work
[5] = test system: metastatic BRCA-mutated breast cancer; set-up: method as in ref [52] = [52]; 52. Somlo G Phase II trial of single agent PARP inhibitor ABT-888 (veliparib [vel]) followed by postprogression therapy of vel with carboplatin (carb) in patients (pts) with stage BRCA-associated meta; settings: veliparib 400 mg BID until disease progression; ref [52]; cited from earlier work
[6] = test system: PARP; settings: read-out: PARP trapping IC50; cited from earlier work
[7] = Veliparib plasma and tumor PK model (NONMEM) in xenograft mice; settings: for Kp: beige SCID (Fox Chase)
Description: PK-analyses were performed using nonlinear mixed-effects modeling (NONMEM VII Software, ICON Development Solutions, San Antonio, TX, USA), using the first-order conditional estimation with interaction (FOCEI) method. The model-building procedure was guided by the likelihood ratio test, diagnostic plots and internal model validation techniques, including visual predictive checks and bootstrap analysis. The effect of dose, concentration and cell source on TNBC xenograft tissue concentrations was assessed. The variability between animals was assessed using two components: one consistent difference common to all TNBC xenograft tissue samples from left and right mouse tumor and one mouse-specific difference (RRES) to understand the inter-individual and intra-individual variability.
Intra-animal error tumor 28% 21% 19%
proportional residual error plasma 13% 42% 8%
proportional residual error tumor 23% 19% 7%
proportional residual error plasma 41% 22% 9%

[8] = Carboplatin quantified by LC-MS in mouse plasma and TNBC xenograft tissue; assay type: in vivo, beige SCID mice
Description: as §1, with “Blood samples (50 μL) were obtained at day 2 in ethylenediaminetetraacetic acid (EDTA) containing vials at 0.6, 3 and 5 h after veliparib and carboplatin dose in 15 mice (all xenograft models, Fig. 1). The procedures were approved by the Institutional Animal (IACUC AN092211-01D).” left out
Thirty-nine mice were euthanized approximately 3 h after the last dose of veliparib and 24 h after the last dose of carboplatin; two mice used in the DCE-MRI pilot were euthanized 1.5 h after single-dose administration of veliparib and carboplatin (Fig. 1). […] A separate fresh-frozen portion of each tissue per animal was ground for quantification of veliparib and carboplatin by LC-MS. […]
Plasma samples (50 μl ) were prepared using protein precipitation with acetonitrile. […] Volume and weight of the pulverized tumor was determined. […]
Veliparib/carboplatin quantification: […]
Concentration of veliparib in tissues were calculated in mg/g and transferred to mg/L by estimating the average density of the livers, muscles and tumors. […]

Xenograft tissues below the limit of detection by LC-MS ([1]; 20 mg/kg dose): 42% | Median conc. (RSE %) ([1]; MDA-MB-231 xenograft tissue, 60 mg/kg): 0.27 (18) mg/L | Median conc. (RSE %) ([1]; MDA-MB-436 xenograft tissue, 60 mg/kg): 0.32 (26) mg/L | Median conc. (RSE %) ([1]; TNBC xenograft tissue (all cell lines), 20 mg/kg, 3 h after last dose): 0.12 (31) mg/L | Median conc. (RSE %) ([1]; TNBC xenograft tissue (all cell lines), 60 mg/kg, 3 h after last dose, 60 mg/kg): 0.36 (12) mg/L | concentration at 3 h ([1]; oral, liver, 60 mg/kg, 3 h after last dose): 1770 ng/mL | concentration at 3 h ([1]; oral, plasma, veliparib 60 mg/kg three times daily, 3 h post dose): 860 ng/mL | concentration at 3 h ([1]; tumor (MDA-MB-231 xenograft), oral, MDA-MB-231 xenograft tissue, 20 mg/kg): 10 ng/mL | concentration at 3 h ([1]; tumor (MDA-MB-231 xenograft), oral, MDA-MB-231 xenograft tissue, 60 mg/kg): 270 ng/mL | concentration at 3 h ([1]; tumor (MDA-MB-436 xenograft), oral, MDA-MB-436 xenograft tissue, 20 mg/kg): 50 ng/mL | concentration at 3 h ([1]; tumor (MDA-MB-436 xenograft), oral, MDA-MB-436 xenograft tissue, 60 mg/kg): 320 ng/mL | concentration at 3 h ([1]; tumor (TNBC xenograft, oral), TNBC xenograft tissue (all cell lines), 60 mg/kg, 3 h after last dose): 360 ng/mL | Median conc. (RSE %) ([1]; liver, 20 mg/kg, 3 h after last dose): 0.47 (20) mg/L | Median conc. (RSE %) ([1]; liver, 60 mg/kg, 3 h after last dose, 60 mg/kg): 1.77 (14) mg/L | Median conc. (RSE %) ([1]; muscle, 20 mg/kg, 3 h after last dose): 0.12 (70) mg/L | Median conc. (RSE %) ([1]; muscle, 60 mg/kg, 3 h after last dose): 0.47 (47) mg/L | Median conc. (RSE %) ([1]; plasma, veliparib 20 mg/kg three times daily, 3 h post dose): 0.19 (10) mg/L | Median conc. (RSE %) ([1]; plasma, veliparib 60 mg/kg three times daily, 3 h post dose): 0.86 (11) mg/L | Kp ([7]; mouse, tumor (MDA-MB-231 xenograft), oral, Penetration from plasma to xenograft tumor (ratio, RPT), MDA-MB-231 xenografts): 0.36 | Kp ([7]; mouse, tumor (MDA-MB-436 xenograft), oral, Penetration from plasma to xenograft tumor (ratio, RPT), MDA-MB-436 xenografts): 0.46 | Kp ([7]; mouse, tumor (TNBC xenografts), oral, Veliparib transferred from plasma to TNBC xenografts, across the three xenograft types): 0.35 to 0.74 | Km ([7]; beige SCID, mouse, plasma, oral): 26.2 µg/mL | Interindividual variability on F plasma ([7]; mouse PK model): 13% | Interindividual variability on tumor penetration (between tumors in different animals) ([7]; mouse PK model): 37% | Intra-animal variability tumor (within the tumor sections of an animal) ([7]; mouse PK model): 28% | Q tumor ([7]; mouse PK model): 0.0694 mL/h | V ([7]; mouse plasma PK model): 10.1 mL | V2 ([7]; mouse plasma PK model): 0.0168 mL | Vmax ([7]; mouse plasma PK model): 1.86 mL/h | KA ([7]; mouse plasma PK model, oral gavage): 2.11 h⁻¹ | KPT, rate of transfer from plasma to tumor ([7]; mouse tumor PK model): 900 mL/h
Structure (SMILES): C[C@]1(c2nc3c(C(N)=O)cccc3[nH]2)CCCN1 [veliparib]
Median conc. (RSE %) ([1]; HCC70 xenograft tissue, 60 mg/kg): 0.43 (16) mg/L | concentration at 3 h ([1]; tumor (HCC70 xenograft), oral, HCC70 xenograft tissue, 20 mg/kg): 130 ng/mL | concentration at 3 h ([1]; tumor (HCC70 xenograft), oral, HCC70 xenograft tissue, 60 mg/kg): 430 ng/mL | Protein binding capacity in human plasma [2]: 51% | Sensitivity in vitro [3]: sensitivity | Sensitivity in vitro [4]: sensitivity | Patients with partial response [5]: 20% | IC50 [6]: 57.4 µM | Kp ([7]; mouse, tumor (HCC70 xenograft), oral, Penetration from plasma to xenograft tumor (ratio, RPT), HCC70 xenografts): 0.75

Structure (SMILES): N.N.O=C([O-])C1(C(=O)[O-])CCC1.[Pt+2] [carboplatin]
Carboplatin in TNBC xenograft tissues ([8]; 24 h after administration, MALDI-MSI and LC-MS): undetectable | Median conc. (RSE %) ([8]; plasma, 0.6 h after carboplatin 60 mg/kg intravenously, LC-MS): 24 mg/L and 24 (20) mg/L
